What was measured:
Assay type in all cases: functional
Rattus norvegicus [1] = test: Antihypertensive activity 0-6 hr after 135 umol/kg p.o. in rats.
Rattus norvegicus [2] = test: Antihypertensive activity 12-18 hr after 135 umol/kg p.o. in rats.
Rattus norvegicus [3] = test: Antihypertensive activity 6-12h after 135 umol/kg p.o. in rats.
Oryctolagus cuniculus = species: Oryctolagus cuniculus; test: In vitro vasorelaxant activity in circumferential strips of potassium-depolarized rabbit aorta.
Rattus norvegicus [4] = species: Rattus norvegicus; test: Extent of hydrolysis of C3 acetyl group of 0.4 mM of compound 5 min after exposure by rat liver homogenate
Rattus norvegicus [5] = species: Rattus norvegicus; test: Extent of hydrolysis of C3 acetyl group of 0.4 mM of compound 30 min after exposure by rat liver homogenate

| SMILES | Decrease in blood pressure (Rattus norvegicus [1]) [%] | Decrease in blood pressure (Rattus norvegicus [2]) [%] | Decrease in blood pressure (Rattus norvegicus [3]) [%] | IC50 (Oryctolagus cuniculus) [nM] | Hydrolysis (Rattus norvegicus [4]) [%] | Hydrolysis (Rattus norvegicus [5]) [%] |
| --- | --- | --- | --- | --- | --- | --- |
| COc1ccc([C@@H]2Cc3c(cccc3C(F)(F)F)N(C[C@@H]3CCCN3)C(=O)[C@@H]2O)cc1 | 32 | 21 | 21 | 100 | – | – |
| COc1ccc([C@@H]2Cc3c(cccc3C(F)(F)F)N(C[C@@H]3CCCN3)C(=O)[C@@H]2OC(C)=O)cc1 | 44 | 38 | – | – | 0 | 0 |
| COc1ccc([C@@H]2Cc3c(Cl)cccc3N(C[C@@H]3CCCN3)C(=O)[C@@H]2O)cc1 | 19 | 13 | 15 | 130 | – | – |
| COc1ccc([C@@H]2Cc3c(cccc3C(F)(F)F)N(CCN(C)C)C(=O)[C@@H]2OC(C)=O)cc1 | 29 | 29 | 29 | – | 0 | 2 |
| COc1ccc(C2Cc3c(Cl)cccc3N(CCN(C)C)C(=O)C2OC(C)=O)cc1 (racemic) | 10 | – | – | – | – | – |
| COc1ccc([C@@H]2Cc3cc(Cl)ccc3N(CCN(C)C)C(=O)[C@@H]2OC(C)=O)cc1 | 12 | 12 | 12 | – | – | – |
| COc1ccc([C@@H]2Cc3cc(C(F)(F)F)ccc3N(CCN(C)C)C(=O)[C@@H]2OC(C)=O)cc1 | 19 | – | – | – | – | – |
| COc1ccc([C@@H]2Cc3c(Cl)cccc3N(C[C@@H]3CCCN3)C(=O)[C@@H]2OC(C)=O)cc1 | 18 | 20 | 17 | 120 | 7 | 17 |
| COc1ccc(C2Cc3cc(C(F)(F)F)ccc3N(CCN(C)C)C(=O)C2OC(C)=O)cc1 (stereo unspecified) | – | – | – | 1900 | – | – |
| COc1ccc([C@@H]2Cc3cc(OC)ccc3N(C[C@@H]3CCCN3)C(=O)[C@@H]2OC(C)=O)cc1 | 39 | 31 | 33 | 230 | 3 | 3 |
| COc1ccc([C@@H]2Sc3ccccc3N(C[C@@H]3CCCN3)C(=O)[C@@H]2OC(C)=O)cc1 | 18 | 10 | 8 | 340 | 32 | 57 |
| COc1ccc([C@@H]2Sc3ccccc3N(CCN(C)C)C(=O)[C@@H]2OC(C)=O)cc1 [DILTIAZEM] | 20 | 19 | – | – | 68 | 100 |
| COc1ccc([C@@H]2Sc3ccccc3N(C[C@@H]3CCCN3)C(=O)[C@@H]2O)cc1 | 10 | 9 | 10 | 1320 | – | – |
| COc1ccc([C@@H]2Sc3cc(OC)ccc3N(C[C@@H]3CCCN3)C(=O)[C@@H]2OC(C)=O)cc1 | 42 | 37 | 39 | 120 | 3 | 7 |
| COc1ccc([C@@H]2Cc3ccccc3N(CCN(C)C)C(=O)[C@@H]2OC(C)=O)cc1 | – | 13 | – | 2990 | 18 | 53 |
| COc1ccc([C@@H]2Cc3cc(OC)ccc3N(C[C@@H]3CCCN3)C(=O)[C@@H]2O)cc1 | 18 | 18 | 19 | 1120 | – | – |
| COc1ccc([C@@H]2Sc3cc(OC)ccc3N(C[C@@H]3CCCN3)C(=O)[C@@H]2O)cc1 | 32 | 23 | 33 | 370 | – | – |
| COc1ccc(C2Sc3cc(OC)ccc3N(CCN(C)C)C(=O)C2OC(C)=O)cc1 (racemic) | 34 | 19 | 21 | 130 | – | – |

— ChEMBL document CHEMBL1126271, “Benzazepinone calcium channel blockers. 5. Effects on antihypertensive activity associated with N1 and aromatic substituents” (J Med Chem, 1992)
